Laboratory results taken from ChEMBL document CHEMBL1157801, “Discovery of an in vitro and in vivo potent resorcylic lactone analog of LL-Z1640-2 as anti-inflammatory lead, II” (Bioorg Med Chem Lett, 2010).
pIC50: −log10 of the molar value. The source made the active and inactive calls. The calls are words filed in the database; no cut-off is given here.

What was measured:
U-937 [1] = test: Inhibition of PALP-fussed actin production in human U937 cells; assay type: functional, cell-based
U-937 [2] = test: Inhibition of PALP-fussed TNFalpha production in human U937 cells; assay type: functional, cell-based
Mus musculus = test: Antiinflammatory activity in iv dosed mouse assessed as inhibition of LPS-stimulated TNFalpha production; assay type: functional

COc1cc(O)c2c(c1)OCC[C@H](O)[C@H](O)C(=O)/C=C\[C@@H](C)[C@H](C)OC2=O
pIC50 (U-937 [1]): < 5.00 | pIC50 (U-937 [2]): 5.77

C[C@@H]1/C=C\C(=O)[C@@H](O)[C@@H](O)C/C=C/c2cc(OCCn3ccnn3)cc(O)c2C(=O)O[C@H]1C
pIC50 (U-937 [1]): < 5.00 | pIC50 (U-937 [2]): 7.37

CC(C)Oc1cc(O)c2c(c1)/C=C/C[C@H](O)[C@H](O)C(=O)/C=C\[C@@H](C)[C@H](C)OC2=O
pIC50 (U-937 [1]): < 5.00 | pIC50 (U-937 [2]): 6.16

COc1cc(O)c2c(c1)/C=C/C[C@H](O)[C@H](O)C(=O)/C=C\[C@@H](C)[C@H](C)OC2=O
ED50 (Mus musculus): 13.2 mg/kg | pIC50 (U-937 [1]): < 5.00 | pIC50 (U-937 [2]): 6.87

C[C@@H]1/C=C\C(=O)[C@@H](O)[C@@H](O)C/C=C/c2cc(OC(F)F)cc(O)c2C(=O)O[C@H]1C
pIC50 (U-937 [1]): < 5.00 | pIC50 (U-937 [2]): 6.21

COc1ccc(COc2cc(O)c3c(c2)/C=C/C[C@H](O)[C@H](O)C(=O)/C=C\[C@@H](C)[C@H](C)OC3=O)cc1
pIC50 (U-937 [1]): < 5.00 | pIC50 (U-937 [2]): 6.77

C[C@@H]1/C=C\C(=O)[C@@H](O)[C@@H](O)C/C=C/c2cc(OCc3ccccc3)cc(O)c2C(=O)O[C@H]1C
pIC50 (U-937 [1]): < 5.00 | pIC50 (U-937 [2]): 6.50

C[C@@H]1/C=C\C(=O)[C@@H](O)[C@@H](O)C/C=C/c2cc(O)cc(O)c2C(=O)O[C@H]1C
pIC50 (U-937 [1]): < 5.00 | pIC50 (U-937 [2]): 6.29

C[C@@H]1/C=C\C(=O)[C@@H](O)[C@@H](O)C/C=C/c2cc(OCC(O)CO)cc(O)c2C(=O)O[C@H]1C (some centres undefined)
pIC50 (U-937 [1]): < 5.00 | pIC50 (U-937 [2]): 6.42

CC(=O)NCC(=O)COc1cc(O)c2c(c1)/C=C/C[C@H](O)[C@H](O)C(=O)/C=C\[C@@H](C)[C@H](C)OC2=O
pIC50 (U-937 [1]): < 5.00 | pIC50 (U-937 [2]): 7.51

COc1cc(O)c2c(c1Br)/C=C/C[C@H](O)[C@H](O)C(=O)/C=C\[C@@H](C)[C@H](C)OC2=O
pIC50 (U-937 [1]): < 5.00 | pIC50 (U-937 [2]): 6.09

C[C@@H]1/C=C\C(=O)[C@@H](O)[C@@H](O)C/C=C/c2cc(OCc3ccc(Cl)c(Cl)c3)cc(O)c2C(=O)O[C@H]1C
pIC50 (U-937 [1]): < 5.00 | pIC50 (U-937 [2]): 6.12

C[C@@H]1/C=C\C(=O)[C@@H](O)[C@@H](O)C/C=C/c2cc(OCCCS(C)(=O)=O)cc(O)c2C(=O)O[C@H]1C
ED50 (Mus musculus): 9.8 mg/kg | pIC50 (U-937 [1]): < 5.00 | pIC50 (U-937 [2]): 7.49

CCCOc1cc(O)c2c(c1)/C=C/C[C@H](O)[C@H](O)C(=O)/C=C\[C@@H](C)[C@H](C)OC2=O
pIC50 (U-937 [1]): < 5.00 | pIC50 (U-937 [2]): 6.60

COc1cc(O)c2c(c1)/C=C/C[C@H](O)[C@H](O)C(=O)/C=C\C[C@H](C)OC2=O
ED50 (Mus musculus): inactive

CCOc1cc(O)c2c(c1)/C=C/C[C@H](O)[C@H](O)C(=O)/C=C\[C@@H](C)[C@H](C)OC2=O
ED50 (Mus musculus): 12 mg/kg | pIC50 (U-937 [1]): < 5.00 | pIC50 (U-937 [2]): 7.00

C[C@@H]1/C=C\C(=O)[C@@H](O)[C@@H](O)C/C=C/c2cc(OCCN3CCOCC3)cc(O)c2C(=O)O[C@H]1C
pIC50 (U-937 [1]): < 5.00 | pIC50 (U-937 [2]): 7.23

C[C@@H]1/C=C\C(=O)[C@@H](O)[C@@H](O)C/C=C/c2cc(OCCN(C)C)cc(O)c2C(=O)O[C@H]1C
pIC50 (U-937 [1]): < 5.00 | pIC50 (U-937 [2]): 6.22

CC(=O)NCCOc1cc(O)c2c(c1)/C=C/C[C@H](O)[C@H](O)C(=O)/C=C\[C@@H](C)[C@H](C)OC2=O
pIC50 (U-937 [1]): < 5.00 | pIC50 (U-937 [2]): 7.19

COc1cc(O)c2c(c1)NC(=O)C[C@H](O)[C@H](O)C(=O)/C=C\[C@@H](C)[C@H](C)OC2=O
pIC50 (U-937 [1]): < 5.00 | pIC50 (U-937 [2]): 6.53

CCCCOc1cc(O)c2c(c1)/C=C/C[C@H](O)[C@H](O)C(=O)/C=C\[C@@H](C)[C@H](C)OC2=O
pIC50 (U-937 [1]): < 5.00 | pIC50 (U-937 [2]): 6.49

C[C@@H]1/C=C\C(=O)[C@@H](O)[C@@H](O)C/C=C/c2cc(OCCNc3ccccn3)cc(O)c2C(=O)O[C@H]1C
pIC50 (U-937 [1]): < 5.00 | pIC50 (U-937 [2]): 6.95

C[C@@H]1/C=C\C(=O)[C@@H](O)[C@@H](O)C/C=C/c2cc(OCCn3ccnc3)cc(O)c2C(=O)O[C@H]1C
ED50 (Mus musculus): 6.5 mg/kg | pIC50 (U-937 [1]): < 5.00 | pIC50 (U-937 [2]): 7.82
